Results on 9 molecules are retold here after ChEMBL document CHEMBL3120120, “Toxicological and pharmacological evaluation, antioxidant, ADMET and molecular modeling of selected racemic chromenotacrines {11-amino-12-aryl-8,9,10,12-tetrahydro-7H-chromeno[2,3-b]quinolin-3-ols} for the potential prevention and treatment of Alzheimer's disease” (Eur J Med Chem, 2014).

Activity calls are given as the source filed them. The rule behind the calls is not given here.

Series [1] can be described thus: Antioxidant activity against AAPH-induced lipid peroxidation assessed as inhibition of conjugated diene hydroperoxide production at 100 uM. The series is classed as functional.
Series [2] in a line: in vitro. The following applies: human, HepG2 cells.
Description: Hepatotoxicity against human HepG2 cells assessed as cell viability at 3 uM after 24 hrs by MTT assay relative to control
The nature of series [3]: in vitro. To be noted: human, HepG2 cells. This is another data set of the same source.
Description: Hepatotoxicity against human HepG2 cells assessed as cell viability at 100 uM after 24 hrs by MTT assay relative to control
Series [4] addresses T1, Acetylcholinesterase (Electrophorus electricus, UniProt O42275).
Description: Inhibition of electric eel AchE using acetylcholine as substrate preincubated for 15 mins followed by substrate addition measured for 5 mins by Ellman method
Series [5] is described as follows: in vitro. The following applies: human, HepG2 cells. This is another data set of the same source.
Description: Hepatotoxicity against human HepG2 cells assessed as cell viability at 30 uM after 24 hrs by MTT assay relative to control
Series [6] is described as follows: in vitro. The following applies: human, HepG2 cells. The source holds these as a separate data set.
Description: Hepatotoxicity against human HepG2 cells assessed as cell viability at 10 uM after 24 hrs by MTT assay relative to control
Series [7] concerns HepG2. The experiment in a line: Hepatotoxicity against human HepG2 cells assessed as cell viability after 24 hrs by MTT assay. The format is toxicity, cell-based. To be noted: hepg2, 24 h.
Series [8] is described as follows: in vitro. To be noted: human, HepG2 cells. This is another data set of the same source.
Description: Hepatotoxicity against human HepG2 cells assessed as cell viability at 300 uM after 24 hrs by MTT assay relative to control
A short description of series [9]: in vitro. The following applies: human, HepG2 cells. The source holds these as a separate data set.
Description: Hepatotoxicity against human HepG2 cells assessed as cell viability at 1 uM after 24 hrs by MTT assay relative to control
The subject of a further series is Glycine max. The experiment in a line: Inhibition of soybean lipoxygenase assessed as conversion of sodium linoleate to 13-hydroperoxylinoleic acid at 100 uM by UV absorbance assay.
The nature of series [10]: Neuroprotective activity in Wistar rat embryo primary cortical neuron assessed as reversal of SNP-induced ROS formation at 1 uM after 24 hrs by spectrofluorometric analysis relative to control. The format is functional, Cerebral cortex neuron.
The nature of series [11]: Neuroprotective activity in Wistar rat embryo primary cortical neuron using DEVD-AMC as flurogenic substrate assessed as inhibition of SNP-induced cell necrosis by measuring caspase 3 activity at 25 to 50 uM by spectroflurometric analysis relative to control. The series is classed as functional, Cerebral cortex neuron.
The subject of series [12] is Cerebral cortex neuron. The experiment in a line: Neuroprotective activity in Wistar rat embryo primary cortical neuron using DEVD-AMC as flurogenic substrate assessed as inhibition of oligomycin A-induced cell death by measuring caspase 3 activity at 25 to 50 uM by spectroflurometric analysis in presence of serum relative to control. The series is classed as functional, cell-based.

The nature of series [13]: Neuroprotective activity in Wistar rat embryo primary cortical neuron assessed as reduction of SNP-induced cell death by measuring cell viability after 24 hrs by XTT assay relative to control. The format is functional, cell-based. The following applies: Cerebral cortex neuron.
Series [14] in a line: Neuroprotective activity in Wistar rat embryo primary cortical neuron assessed as reduction of oligomycin A-induced cell death by measuring cell viability at 100 uM after 24 hrs by XTT assay relative to control. The format is functional, Cerebral cortex neuron.
Series [15] relates to Cerebral cortex neuron. Briefly: Neuroprotective activity in Wistar rat embryo primary cortical neuron using DEVD-AMC as flurogenic substrate assessed as inhibition of SNP-induced cell necrosis by measuring caspase 3 activity at 25 to 50 uM by spectroflurometric analysis in presence of serum relative to control. The series is classed as functional, cell-based.
The nature of series [16]: Neuroprotective activity in Wistar rat embryo primary cortical neuron assessed as reduction of oligomycin A-induced cell death by measuring cell viability after 24 hrs by XTT assay relative to control. The following applies: Cerebral cortex neuron. The series is classed as functional, cell-based.
Series [17] in a line: Neuroprotective activity in Wistar rat embryo primary cortical neuron assessed as reduction of SNP-induced cell death by measuring cell viability at 100 uM after 24 hrs by XTT assay relative to control. The series is classed as functional, Cerebral cortex neuron.
For series [18], the target named is T1, Acetylcholinesterase. The experiment in a line: Noncompetitive inhibition of electric eel AchE using acetylcholine as substrate preincubated for 15 mins followed by substrate addition measured for 5 mins by Dixon plot analysis.
Series [19] is described as follows: Toxicity in Wistar rat embryo primary cortical neuron assessed as increase in ROS formation at >25 uM. The series is classed as cell-based. The following applies: cerebral cortex neuron.
Series [20] concerns the target Acetylcholinesterase (Electrophorus electricus) (UniProt O42275). Briefly: Noncompetitive inhibition of electric eel AchE using acetylcholine as substrate at 0.01 to 10 uM preincubated for 15 mins followed by substrate addition measured for 5 mins by Lineweaver-Burk plot analysis.
The subject of the next series is SH-SY5Y. The experiment in a line: Antioxidant activity in human SH-SY5Y cells assessed as decrease in H2O2-induced MDA level after 8 hrs by TBARS assay. The format is functional, cell-based.
Series [21] is described as follows: Neuroprotective activity in Wistar rat embryo primary cortical neuron assessed as reversal of SNP-induced ROS formation at 10 uM after 24 hrs by spectrofluorometric analysis relative to control. The format is functional, Cerebral cortex neuron.
Series [22] is described as follows: Neuroprotective activity in Wistar rat embryo primary cortical neuron using DEVD-AMC as flurogenic substrate assessed as inhibition of oligomycin A-induced cell death by measuring caspase 3 activity at 25 to 50 uM by spectroflurometric analysis relative to control. The series is classed as functional, Cerebral cortex neuron.
Series [23] deals with HepG2. Briefly: Hepatotoxicity against human HepG2 cells assessed as LDH release at 1 to 300 uM. The format is toxicity, cell-based. The following applies: hepg2, 300 µM.
Series [24] is described as follows: Neuroprotective activity in Wistar rat embryo primary cortical neuron assessed as reversal of SNP-induced ROS formation at 25 uM after 24 hrs by spectrofluorometric analysis relative to control. The format is functional, Cerebral cortex neuron.

T1 sequence (O42275 whole entry): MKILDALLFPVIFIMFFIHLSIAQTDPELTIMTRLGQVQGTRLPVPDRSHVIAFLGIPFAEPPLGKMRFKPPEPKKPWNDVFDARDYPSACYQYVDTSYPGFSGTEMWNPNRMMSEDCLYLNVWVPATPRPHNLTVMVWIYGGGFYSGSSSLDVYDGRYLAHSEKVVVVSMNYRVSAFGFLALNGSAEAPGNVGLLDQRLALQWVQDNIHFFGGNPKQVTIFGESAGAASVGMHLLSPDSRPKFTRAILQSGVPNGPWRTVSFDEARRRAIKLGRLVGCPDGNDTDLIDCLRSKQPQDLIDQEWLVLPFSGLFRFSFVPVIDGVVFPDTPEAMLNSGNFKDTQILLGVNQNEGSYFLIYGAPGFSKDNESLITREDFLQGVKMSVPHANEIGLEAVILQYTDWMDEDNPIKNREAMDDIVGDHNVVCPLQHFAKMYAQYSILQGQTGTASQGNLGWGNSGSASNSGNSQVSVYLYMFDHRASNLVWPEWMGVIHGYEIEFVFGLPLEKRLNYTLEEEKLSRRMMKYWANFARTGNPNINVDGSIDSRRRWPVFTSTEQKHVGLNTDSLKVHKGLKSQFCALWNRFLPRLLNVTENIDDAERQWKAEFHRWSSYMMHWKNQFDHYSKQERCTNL
Chain of Acetylcholinesterase (Electrophorus electricus) (O42275 24-633 limits assumed): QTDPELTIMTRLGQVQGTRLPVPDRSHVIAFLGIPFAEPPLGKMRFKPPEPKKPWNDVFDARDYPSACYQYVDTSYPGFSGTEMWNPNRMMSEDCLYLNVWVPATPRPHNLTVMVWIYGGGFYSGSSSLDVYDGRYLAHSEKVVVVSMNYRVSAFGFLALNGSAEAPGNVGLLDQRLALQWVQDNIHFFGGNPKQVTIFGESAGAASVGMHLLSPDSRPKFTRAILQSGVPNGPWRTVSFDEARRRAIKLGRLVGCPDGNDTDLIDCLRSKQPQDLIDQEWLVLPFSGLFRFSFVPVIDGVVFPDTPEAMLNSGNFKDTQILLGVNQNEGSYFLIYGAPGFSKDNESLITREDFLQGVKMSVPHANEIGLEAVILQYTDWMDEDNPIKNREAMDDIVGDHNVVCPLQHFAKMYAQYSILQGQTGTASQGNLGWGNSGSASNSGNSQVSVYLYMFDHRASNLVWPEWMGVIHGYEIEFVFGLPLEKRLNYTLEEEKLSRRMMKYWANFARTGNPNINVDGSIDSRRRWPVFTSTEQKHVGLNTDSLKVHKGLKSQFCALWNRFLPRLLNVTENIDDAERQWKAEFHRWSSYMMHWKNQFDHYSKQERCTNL

Take `Cc1c(C)c2c(c(C)c1O)CCC(C)(C(=O)O)O2` (stereo unspecified): in series [1], the inhibition was 63%.

Turning to `CN(C)c1ccc(C2c3ccc(O)cc3Oc3nc4c(c(N)c32)CCCC4)cc1` (racemic), the viability at 24 h, 3 µM in “in vitro [2]” was found to be 88.5%. Further, the viability at 24 h, 100 µM in the series “in vitro [3]” is 85.5%. Also, the IC50 against Acetylcholinesterase [4] was determined as 290 nM. The viability at 24 h, 30 µM in the series “in vitro [5]” was 85.5%. Besides, the viability at 24 h, 10 µM in “in vitro [6]” was 86.1%. Also, the Activity entry with HepG2 [7] is reported as “Dose-dependent effect”. The viability at 24 h, 300 µM in the series “in vitro [8]” stood at 80.3%. In addition, in the series “in vitro [9]”, the viability at 24 h, 1 µM amounted to 99%.

Take `COc1ccc(C2c3ccc(O)cc3Oc3nc4c(c(N)c32)CCCC4)cc1` (racemic): the viability at 24 h, 3 µM in the series “in vitro [2]” was 96.8%. Also, the viability at 24 h, 100 µM in “in vitro [3]” came out at 85.9%. On Acetylcholinesterase [4], this molecule yielded an IC50 of 530 nM. In “in vitro [5]”, the viability at 24 h, 30 µM worked out at 95%. For the same molecule, in “in vitro [6]”, the viability at 24 h, 10 µM amounted to 94.1%. In the series on HepG2 [7], the Activity result was “Dose-dependent effect”. The viability at 24 h, 300 µM in the series “in vitro [8]” amounted to 75.5%. The viability at 24 h, 1 µM in the series “in vitro [9]” came to 97.3%.

With `CC(Cc1ccc(O)c(O)c1)C(C)Cc1ccc(O)c(O)c1` (stereo unspecified), the inhibition in the series on Glycine max amounted to 84%.

Consider `Nc1c2c(nc3c1C(c1ccccc1)c1ccc(O)cc1O3)CCCC2` (racemic), for which the viability at 24 h, 3 µM in “in vitro [2]” was determined as 67.4%. Also, the viability at 24 h, 100 µM in the series “in vitro [3]” was determined as 55.8%. Half-maximal inhibition at Acetylcholinesterase [4] (IC50) required 550 nM. The viability at 24 h, 30 µM in the series “in vitro [5]” turned out to be 62.4%. Also, in “in vitro [6]”, the viability at 24 h, 10 µM came to 66.2%. In addition, in the series on HepG2 [7], the Activity entry is on record as “Dose-dependent effect”. Moreover, the viability at 24 h, 300 µM in “in vitro [8]” amounted to 49.6%. The viability at 24 h, 1 µM in the series “in vitro [9]” turned out to be 99.5%.

In the case of `Nc1c2c(nc3c1C(c1ccc(Br)cc1)c1ccc(O)cc1O3)CCCC2` (racemic), the viability at 24 h, 3 µM in “in vitro [2]” was determined as 87.4%. In addition, the viability at 24 h, 100 µM in the series “in vitro [3]” was 74.4%. For the same molecule, it took 7 nM to reach half-maximal inhibition at Acetylcholinesterase [4] (IC50). The viability at 24 h, 30 µM in the series “in vitro [5]” came to 76.9%. For the same molecule, the viability at 24 h, 10 µM in the series “in vitro [6]” was 84.8%. Also, the Activity entry in the series with HepG2 [7] was “Dose-dependent effect”. For the same molecule, the viability at 24 h, 300 µM in the series “in vitro [8]” came to 61.5%. Besides, in the series “in vitro [9]”, the viability at 24 h, 1 µM came out at 99%.

Regarding `Nc1c2c(nc3c1C(c1ccc(F)cc1)c1ccc(O)cc1O3)CCCC2` (racemic), the viability at 24 h, 3 µM in the series “in vitro [2]” is 75.1%. Moreover, the viability at 24 h, 100 µM in “in vitro [3]” came out at 55.5%. In addition, the IC50 against Acetylcholinesterase [4] is 103 nM. For the same molecule, the viability at 24 h, 30 µM in “in vitro [5]” was determined as 55.7%. The viability at 24 h, 10 µM in the series “in vitro [6]” came to 62.8%. Besides, the Activity entry in the series with HepG2 [7] was “Dose-dependent effect”. The viability at 24 h, 300 µM in the series “in vitro [8]” turned out to be 50.1%. In addition, the viability at 24 h, 1 µM in the series “in vitro [9]” was 91%.

On to `COc1cc(C2c3ccc(O)cc3Oc3nc4c(c(N)c32)CCCC4)cc(OC)c1OC` (racemic), for which, in “in vitro [2]”, the viability at 24 h, 3 µM is 98.7%. Besides, the “fold change (FC)” value in series [10] is given as 2.31; in series [11], 3.43; in series [21] it was 1.93; in series [22], 1.83; in series [24], 1.81. Moreover, the inhibition with Glycine max worked out at 18%; in series [1], 85%. The inhibition entry (in the series on Cerebral cortex neuron [12]; in the series on Cerebral cortex neuron [15]; in series [20]) was “Active” in each case. The viability at 24 h, 100 µM in the series “in vitro [3]” is 98.3%. The molecule also registered an IC50 at Acetylcholinesterase [4] of 41 nM. Moreover, the viability at 24 h, 30 µM in the series “in vitro [5]” amounted to 100%. For the same molecule, the figures for the EC50 in series [13] and in series [16] were 3.47 µM and 1110 nM, respectively. For the same molecule, the Activity was 81.08% in series [14]; 148.12% in series [17]; “Toxic” in series [19]; “Dose-dependent effect” in the series on SH-SY5Y; “Dose-dependent effect” in the series on HepG2 [7]; “Non-toxic” in the series on HepG2 [23]. The molecule further displayed a Ki at Acetylcholinesterase [18] of 47 nM. The viability at 24 h, 10 µM in “in vitro [6]” came to 101%. Besides, in “in vitro [8]”, the viability at 24 h, 300 µM stood at 103%. Further, in “in vitro [9]”, the viability at 24 h, 1 µM was determined as 102%.

On to `Cc1ccc(C2c3ccc(O)cc3Oc3nc4c(c(N)c32)CCCC4)cc1` (racemic), for which, in the series “in vitro [2]”, the viability at 24 h, 3 µM is 89.5%. In addition, the viability at 24 h, 100 µM in the series “in vitro [3]” worked out at 71.7%. Besides, the IC50 against Acetylcholinesterase [4] worked out at 65 nM. The viability at 24 h, 30 µM in the series “in vitro [5]” is 74.3%. Moreover, in “in vitro [6]”, the viability at 24 h, 10 µM stood at 85.6%. Moreover, the Activity entry in the series with HepG2 [7] is recorded as “Dose-dependent effect”. In the series “in vitro [8]”, the viability at 24 h, 300 µM is 47.9%. The viability at 24 h, 1 µM in “in vitro [9]” came out at 96.9%.
